Test [1] has as its target Adenosine receptor A2a (Rattus norvegicus) (UniProt P30543). The experiment in a line: Antagonistic activity assayed by displacement of specific [3H]-CGS-21,680 binding in rat striatal membrane (adenosine A2A receptor) at a conc of […]. The conditions noted are these: Striatum. The class given is cell membranes.
Test [2] deals with T1, Adenosine receptor A1 (Rattus norvegicus) (UniProt P25099).
T1 sequence (whole entry): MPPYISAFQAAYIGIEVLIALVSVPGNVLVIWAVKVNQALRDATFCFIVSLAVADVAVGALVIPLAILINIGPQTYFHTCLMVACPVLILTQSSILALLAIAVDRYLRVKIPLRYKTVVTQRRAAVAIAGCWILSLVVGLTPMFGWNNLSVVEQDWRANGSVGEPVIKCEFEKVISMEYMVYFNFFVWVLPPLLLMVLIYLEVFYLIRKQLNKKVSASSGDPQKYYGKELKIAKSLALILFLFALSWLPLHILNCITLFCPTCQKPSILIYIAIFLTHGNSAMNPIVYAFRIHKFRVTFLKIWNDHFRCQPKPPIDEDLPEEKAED
The experiment in a line: Antagonist activity by displacement of specific [3H]DPCPX binding in rat cortical membrane (Adenosine A1 receptor) at a Conc of […]. The test is classed as cell membranes.

A short description of test [3]: Relative binding affinity for adenosine receptors A1 and A3 as ratio of Ki.

Our source for the Displacement and Ratio values is ChEMBL document CHEMBL1131134, “A novel class of adenosine A3 receptor ligands. 2. Structure affinity profile of a series of isoquinoline and quinazoline compounds” (J Med Chem, 1998).

Molecules are shown by their SMILES.

Adenosine receptor A2a (Rattus norvegicus), sequence (P30543 whole entry): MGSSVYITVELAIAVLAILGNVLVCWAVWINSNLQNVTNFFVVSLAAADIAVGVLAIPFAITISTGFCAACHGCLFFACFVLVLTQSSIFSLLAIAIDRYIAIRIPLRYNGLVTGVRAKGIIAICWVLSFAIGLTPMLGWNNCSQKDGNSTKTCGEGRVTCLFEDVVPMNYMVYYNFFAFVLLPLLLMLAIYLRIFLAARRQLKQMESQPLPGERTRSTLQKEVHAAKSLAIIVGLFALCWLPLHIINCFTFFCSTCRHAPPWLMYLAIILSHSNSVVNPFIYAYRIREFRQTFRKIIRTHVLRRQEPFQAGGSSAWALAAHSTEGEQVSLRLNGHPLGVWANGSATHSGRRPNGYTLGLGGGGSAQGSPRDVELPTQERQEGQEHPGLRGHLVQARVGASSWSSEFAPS

In the case of `Cc1cccc(C(=O)Nc2nc(-c3ccccn3)cc3ccccc23)c1`, the Displacement in test [1] was determined as 0%; in test [2], 35%. The like results for `Cc1ccc(C)c(C(=O)Nc2nc(-c3ccccn3)cc3ccccc23)c1` were, in that order, 7% and 29%. Consider `Oc1nc(-c2ccccn2)cc2ccccc12`, for which the Displacement in test [2] came to 21%. As to `O=C(Nc1nc(-c2ccccn2)cc2ccccc12)c1ccc(Cl)c(Cl)c1`, the Displacement in test [1] and in test [2] was 0% each time. Consider `N=C(Nc1nc(-c2ccccn2)cc2ccccc12)c1ccccc1`, for which the Displacement in test [1] amounted to 4%. Molecule `O=C(Nc1nc(-c2ccccn2)cc2ccccc12)c1ccccc1` returned a Displacement in test [1] of 0%. In addition, the Ratio in test [3] stood at 16. On to `COc1ccc(C(=O)Nc2nc(-c3ccccn3)cc3ccccc23)cc1OC`, for which the figures for the Displacement in test [1] and in test [2] were 20% and 41%, respectively. As to `O=C(c1ccccc1)N(C(=O)c1ccccc1)c1nc(-c2ccccn2)cc2ccccc12`, the Displacement in test [1] was found to be 27%. Further, the Ratio in test [3] stood at 19. In the case of `Cc1cccc(C)c1C(=O)Nc1nc(-c2ccccn2)cc2ccccc12`, the results for the Displacement in test [1] and in test [2] were 0% and 2%, respectively. Turning to `Cc1ccc(C(=O)Nc2nc(-c3ccccn3)cc3ccccc23)c(C)c1`, the Displacement was determined as 0% in test [1] and 14% in test [2].

Regarding `N=CNc1nc(-c2ccccn2)nc2ccccc12`, the Displacement in test [1] stood at 17%; in test [2], 38%. Take `COc1ccc(C(=O)Nc2nc(-c3ccccn3)cc3ccccc23)cc1`: the figures for the Displacement in test [1] and in test [2] were 0% and 14%, respectively. The like results for `Cc1ccc(C(=O)Nc2nc(-c3ccccn3)cc3ccccc23)cc1C` were, in that order, 0% and 16%. Consider `Cc1cc(C)cc(C(=O)Nc2nc(-c3ccccn3)cc3ccccc23)c1`, for which the figures for the Displacement in test [1] and in test [2] were 0% and 8%, respectively. For `O=C(Nc1nc(-c2ccccn2)nc2ccccc12)C(F)(F)F`, the Displacement in test [1] came to 0%; in test [2], 8%. Molecule `N=CNc1nc(-c2ccccn2)cc2ccccc12` registered a Displacement in test [1] of 42%. For the molecule `CC(=O)Nc1nc(-c2ccccn2)cc2ccccc12`, the Displacement in test [1] came to 18%; in test [2], 24%.

For `O=C(Nc1nc(-c2ccccn2)cc2ccccc12)c1cccc(Cl)c1`, the Displacement worked out at 0% in test [1] and 42% in test [2]. The like results for `O=C(c1ccccc1)N(C(=O)c1ccccc1)c1nc(-c2ccccn2)nc2ccccc12` were, in that order, 3% and 3%.

For the molecule `O=C(Nc1nc(-c2ccccn2)cc2ccccc12)c1ccc(Cl)cc1`, the Displacement worked out at 0% in test [1] and 11% in test [2]. Turning to `COc1cccc(C(=O)Nc2nc(-c3ccccn3)cc3ccccc23)c1`, the Displacement in test [1] turned out to be 0%; in test [2], 22%. The like results for `CC(=O)Nc1nc(-c2ccccn2)nc2ccccc12` were, in that order, 17% and 25%. The corresponding values for `COc1ccc(C(=O)Nc2nc(-c3ccccn3)nc3ccccc23)cc1` are 20% and 41%. For `CC(C)C(=O)Nc1nc(-c2ccccn2)cc2ccccc12`, the Displacement was 48% in test [1] and 38% in test [2]. In test [1], `O=C(Cc1nc(-c2ccccn2)cc2ccccc12)c1ccccc1` registered a Displacement of 22%. For the same molecule, the Ratio in test [3] is 0.36. For the molecule `Cc1ccc(C(=O)Nc2nc(-c3ccccn3)cc3ccccc23)cc1`, the Displacement in test [1] came out at 0%; in test [2], 37%.

For `O=C(Nc1nc(-c2ccccn2)nc2ccccc12)c1ccccc1`, the Displacement in test [1] was found to be 2%; in test [2], 0%. The like results for `Oc1nc(-c2ccccn2)nc2ccccc12` were, in that order, 10% and 16%.
